Reference: paper PMC10207986, “Computational high-throughput screening and in vitro approaches identify CB-006-3; A novel PI3K-BRAF^V600E dual targeted inhibitor against melanoma” (Oncology Research, 2022)

Tests used:
Assay type in all cases: biochemical
BRAF^V600E (B-Raf^V600E) = target: T1, BRAF^V600E (B-Raf^V600E) (Homo sapiens, UniProt P15056, V600E); experiment: luminescence kinase assay (Kinase-Glo Max); conditions: 500 µM ATP, Raf substrate, 45 min, 30°C
T1 construct: enzyme of BPS Bioscience B-Raf V600E assay kit

PI3KCG (PI3K gamma) = target: T2, PI3KCG (PI3K gamma) (Homo sapiens, UniProt P48736); experiment: HTRF PI3K kinase assay; conditions: PIP2 substrate, ATP; 10 min pre-incubation, 30 min, room temperature
T2 construct: gene PIK3CG; enzyme used with Merck Millipore PI3K HTRF kit

PI3KCD (PI3K delta) = target: T3, PI3KCD (PI3K delta) (Homo sapiens, UniProt O00329); experiment: HTRF PI3K kinase assay; conditions: PIP2 substrate, ATP; 10 min pre-incubation, 30 min, room temperature
T3 construct: gene PIK3CD; enzyme used with Merck Millipore PI3K HTRF kit; with Phosphatidylinositol 3-kinase regulatory subunit alpha
T3 sequence (O00329 whole entry): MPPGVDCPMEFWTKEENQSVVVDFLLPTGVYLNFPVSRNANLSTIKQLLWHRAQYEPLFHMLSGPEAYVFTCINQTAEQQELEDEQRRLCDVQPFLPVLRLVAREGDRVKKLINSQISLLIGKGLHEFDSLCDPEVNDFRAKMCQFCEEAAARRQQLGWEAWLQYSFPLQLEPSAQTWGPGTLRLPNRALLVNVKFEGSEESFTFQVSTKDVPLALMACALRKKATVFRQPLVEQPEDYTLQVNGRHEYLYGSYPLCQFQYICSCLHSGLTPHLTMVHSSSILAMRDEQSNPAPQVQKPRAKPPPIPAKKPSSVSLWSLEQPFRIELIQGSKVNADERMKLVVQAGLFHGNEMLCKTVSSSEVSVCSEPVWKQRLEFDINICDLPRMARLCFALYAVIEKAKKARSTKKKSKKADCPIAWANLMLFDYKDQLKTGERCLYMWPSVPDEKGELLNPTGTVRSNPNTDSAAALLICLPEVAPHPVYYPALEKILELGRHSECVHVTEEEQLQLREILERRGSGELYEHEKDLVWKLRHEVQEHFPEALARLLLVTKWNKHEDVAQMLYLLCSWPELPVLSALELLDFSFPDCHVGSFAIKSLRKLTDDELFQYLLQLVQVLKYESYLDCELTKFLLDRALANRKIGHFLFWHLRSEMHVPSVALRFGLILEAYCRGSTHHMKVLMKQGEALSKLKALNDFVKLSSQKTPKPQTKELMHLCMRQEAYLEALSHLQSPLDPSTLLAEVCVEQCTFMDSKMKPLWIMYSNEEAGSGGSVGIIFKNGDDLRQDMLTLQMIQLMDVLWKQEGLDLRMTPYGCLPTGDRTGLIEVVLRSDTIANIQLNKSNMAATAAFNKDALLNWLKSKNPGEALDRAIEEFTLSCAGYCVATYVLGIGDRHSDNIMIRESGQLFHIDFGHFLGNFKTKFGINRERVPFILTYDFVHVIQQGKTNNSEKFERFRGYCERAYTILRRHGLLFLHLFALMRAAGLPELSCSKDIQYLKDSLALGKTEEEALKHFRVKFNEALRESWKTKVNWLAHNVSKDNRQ
T3 sequence (P27986 2-724 partner): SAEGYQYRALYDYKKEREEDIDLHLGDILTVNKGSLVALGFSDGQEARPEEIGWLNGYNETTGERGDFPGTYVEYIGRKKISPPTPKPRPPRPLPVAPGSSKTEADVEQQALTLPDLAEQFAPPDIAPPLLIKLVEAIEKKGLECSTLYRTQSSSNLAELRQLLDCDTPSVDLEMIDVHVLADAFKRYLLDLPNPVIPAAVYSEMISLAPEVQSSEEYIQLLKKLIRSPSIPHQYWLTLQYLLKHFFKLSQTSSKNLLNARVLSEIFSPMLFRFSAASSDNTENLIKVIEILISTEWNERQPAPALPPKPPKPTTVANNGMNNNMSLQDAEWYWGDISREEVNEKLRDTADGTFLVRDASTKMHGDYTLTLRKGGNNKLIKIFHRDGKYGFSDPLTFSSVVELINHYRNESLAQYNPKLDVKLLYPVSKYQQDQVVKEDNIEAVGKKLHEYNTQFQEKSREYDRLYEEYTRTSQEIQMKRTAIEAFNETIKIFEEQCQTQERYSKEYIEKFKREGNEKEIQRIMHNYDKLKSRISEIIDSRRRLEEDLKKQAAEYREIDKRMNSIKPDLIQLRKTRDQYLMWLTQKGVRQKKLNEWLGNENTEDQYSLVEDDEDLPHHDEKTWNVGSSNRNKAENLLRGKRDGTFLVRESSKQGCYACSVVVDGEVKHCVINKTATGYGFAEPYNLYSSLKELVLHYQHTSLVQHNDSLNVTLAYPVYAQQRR

T1 sequence (P15056 2-766 V600E): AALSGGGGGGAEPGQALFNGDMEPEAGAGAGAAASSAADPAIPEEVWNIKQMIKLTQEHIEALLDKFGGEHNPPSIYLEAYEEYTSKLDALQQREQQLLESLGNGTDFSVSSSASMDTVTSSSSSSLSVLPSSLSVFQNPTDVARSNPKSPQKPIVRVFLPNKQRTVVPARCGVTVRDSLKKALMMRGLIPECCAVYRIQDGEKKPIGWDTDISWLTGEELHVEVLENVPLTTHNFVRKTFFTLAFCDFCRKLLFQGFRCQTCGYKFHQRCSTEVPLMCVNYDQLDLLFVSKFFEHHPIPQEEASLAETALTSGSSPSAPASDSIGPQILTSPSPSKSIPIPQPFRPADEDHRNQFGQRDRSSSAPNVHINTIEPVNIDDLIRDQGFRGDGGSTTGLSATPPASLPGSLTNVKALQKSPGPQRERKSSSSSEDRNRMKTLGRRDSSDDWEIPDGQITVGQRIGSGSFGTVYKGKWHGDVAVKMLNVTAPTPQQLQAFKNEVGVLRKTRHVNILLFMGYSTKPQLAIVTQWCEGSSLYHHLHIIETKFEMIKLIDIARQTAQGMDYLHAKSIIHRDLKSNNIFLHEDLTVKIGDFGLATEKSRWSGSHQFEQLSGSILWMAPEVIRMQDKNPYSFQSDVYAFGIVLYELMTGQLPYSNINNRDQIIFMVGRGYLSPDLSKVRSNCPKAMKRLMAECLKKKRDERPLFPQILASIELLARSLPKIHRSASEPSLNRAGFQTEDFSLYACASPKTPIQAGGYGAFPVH
T2 sequence (P48736 whole entry): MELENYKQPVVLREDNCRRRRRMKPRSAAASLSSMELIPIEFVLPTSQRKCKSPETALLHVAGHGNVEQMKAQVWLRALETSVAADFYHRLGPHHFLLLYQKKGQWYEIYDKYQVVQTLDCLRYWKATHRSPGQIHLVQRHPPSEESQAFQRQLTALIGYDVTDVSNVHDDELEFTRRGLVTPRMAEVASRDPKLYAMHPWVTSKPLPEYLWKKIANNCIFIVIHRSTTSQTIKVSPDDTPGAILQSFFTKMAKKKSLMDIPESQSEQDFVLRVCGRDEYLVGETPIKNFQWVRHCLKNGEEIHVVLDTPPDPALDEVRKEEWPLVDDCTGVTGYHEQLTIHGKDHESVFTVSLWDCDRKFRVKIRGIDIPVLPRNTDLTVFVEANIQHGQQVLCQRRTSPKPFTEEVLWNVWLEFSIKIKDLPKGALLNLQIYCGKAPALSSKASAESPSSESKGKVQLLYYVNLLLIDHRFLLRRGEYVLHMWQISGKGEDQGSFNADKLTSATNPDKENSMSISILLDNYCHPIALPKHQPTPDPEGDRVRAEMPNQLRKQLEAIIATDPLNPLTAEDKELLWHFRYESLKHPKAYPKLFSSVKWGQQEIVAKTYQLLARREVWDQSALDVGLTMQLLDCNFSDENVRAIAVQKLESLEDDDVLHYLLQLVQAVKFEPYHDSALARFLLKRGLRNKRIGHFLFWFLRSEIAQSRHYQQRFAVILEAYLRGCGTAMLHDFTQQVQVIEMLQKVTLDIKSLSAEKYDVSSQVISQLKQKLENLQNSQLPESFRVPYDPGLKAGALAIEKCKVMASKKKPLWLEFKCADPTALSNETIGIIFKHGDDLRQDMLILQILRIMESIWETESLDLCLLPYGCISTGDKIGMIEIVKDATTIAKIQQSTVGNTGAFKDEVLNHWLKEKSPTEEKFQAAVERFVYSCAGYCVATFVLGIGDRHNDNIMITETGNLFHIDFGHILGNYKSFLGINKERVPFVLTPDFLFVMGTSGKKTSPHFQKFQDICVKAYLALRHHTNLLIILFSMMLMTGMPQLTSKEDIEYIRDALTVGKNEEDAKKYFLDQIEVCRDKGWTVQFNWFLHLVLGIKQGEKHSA

**Q.** `Cc1cc(C)c(CC(=O)N2C[C@@H]3CC(=O)NCCN(C)C(=O)c4cccn(c4=O)Cc4cn(nn4)[C@@H]3C2)c(C)c1` (relative stereo) [CB-006-3, rel-(17aS,20aS)-19-(mesitylacetyl)-12-methyl-12,13,14,15,17,17a,18,19,20,20a-decahydro-6,10-methano-1,4-methenopyrrolo[3,4-r] [1,2,3,6,12,15]hexaazacyclononadecine-11,16,21-trione] was tested. Which IC50 (BRAF^V600E (B-Raf^V600E)) did it give?
**A.** 70.8 nM

**Q.** What about the IC50 (PI3KCG (PI3K gamma)) of the same compound?
**A.** 75.8 nM

**Q.** What about the IC50 (PI3KCD (PI3K delta)) of the same compound?
**A.** 160 nM
